Measured values from PubChem BioAssay (NCI).
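Five compound concentrations were applied to cells in 96-well plates for 48 hours; endpoints were derived by simple linear interpolation of the resulting dose-response curve. Definition used: TGI = concentration required for complete inhibition of growth.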

What was measured:
Assay in all cases: NCI anticancer screen, dose series, 48 h
786-0 renal = test system: 786-0 renal
A549 NSCLC = test system: A549 NSCLC
COLO 205 colon = test system: COLO 205 colon
EKVX NSCLC = test system: EKVX NSCLC
HCT-116 colon = test system: HCT-116 colon
HCT-15 colon = test system: HCT-15 colon
HT29 colon = test system: HT29 colon
MCF7 breast = test system: MCF7 breast
NCI-H460 lung = test system: NCI-H460 lung
OVCAR-4 ovarian = test system: OVCAR-4 ovarian
OVCAR-5 ovarian = test system: OVCAR-5 ovarian
PC-3 prostate = test system: PC-3 prostate
SK-MEL-2 melanoma = test system: SK-MEL-2 melanoma
SK-OV-3 ovarian = test system: SK-OV-3 ovarian
TK-10 renal = test system: TK-10 renal
U251 CNS = test system: U251 CNS
UACC-257 melanoma = test system: UACC-257 melanoma
CAKI-1 renal = test system: CAKI-1 renal
KM12 colon = test system: KM12 colon

Row | SMILES | TGI (786-0 renal) [µM] | TGI (A549 NSCLC) [µM] | TGI (COLO 205 colon) [µM] | TGI (EKVX NSCLC) [µM] | TGI (HCT-116 colon) [µM] | TGI (HCT-15 colon) [µM] | TGI (HT29 colon) [µM] | TGI (MCF7 breast) [µM] | TGI (NCI-H460 lung) [µM] | TGI (OVCAR-4 ovarian) [µM] | TGI (OVCAR-5 ovarian) [µM] | TGI (PC-3 prostate) [µM] | TGI (SK-MEL-2 melanoma) [µM] | TGI (SK-OV-3 ovarian) [µM] | TGI (TK-10 renal) [µM] | TGI (U251 CNS) [µM] | TGI (UACC-257 melanoma) [µM] | TGI (CAKI-1 renal) [µM] | TGI (KM12 colon) [µM]
1 | C[C@H]1O[C@@H](c2c(O)ccc3ccccc23)C[C@@H](N(C)C)C1O (stereo not given in full) | > 100 | > 100 | > 100 | > 100 | > 100 | > 100 | > 100 | > 100 | > 100 | > 100 | > 100 | > 100 | > 100 | > 100 | > 100 | > 100 | > 100 | – | –
2 | CCOC(=O)c1ccc(Nc2nc3cc(C(F)(F)F)ccc3nc2-c2ccccc2)cc1 | 44.8 | > 100 | > 100 | > 100 | > 100 | > 100 | > 10 | > 100 | > 100 | – | > 100 | 69.2 | – | – | > 10 | 49.5 | > 100 | > 100 | > 100
3 | COc1ccc2c(c1)c(=O)c1ccccc1n2/C=C/C(=O)O | > 100 | > 100 | > 100 | > 100 | > 100 | > 100 | > 100 | – | > 100 | > 100 | > 100 | – | > 100 | > 100 | > 100 | > 100 | > 100 | > 100 | > 100
4 | COc1c(Cl)c2c(c(OC)c1OC)-c1ccc(OC)c(=O)c(Cl)c1C(NC(C)=O)CC2 (stereo not given) | > 33.8 | > 100 | 0.647 | > 100 | 0.322 | 2.38 | – | – | 1.34 | > 100 | > 100 | – | 7.87 | – | > 100 | 1.15 | > 100 | > 100 | > 100
5 | OC12c3ccccc3C1(N1CCOCC1)CCCCC21OCCCO1 (stereo not given) | > 100 | > 100 | > 100 | – | > 100 | > 100 | > 100 | – | > 100 | > 100 | > 100 | – | > 100 | > 100 | > 100 | > 100 | > 100 | > 100 | > 100
6 | COc1ccc2cc(C(C)C(O)c3cc(F)c(F)c(F)c3F)ccc2c1 (stereo not given) | > 100 | > 100 | > 100 | > 100 | > 100 | > 100 | > 100 | > 100 | > 100 | > 100 | > 100 | > 100 | – | > 100 | > 100 | > 100 | > 100 | – | –
7 | C/C=C(C)/C=C/CC(C)CCC=C(C)C (stereo not given) | > 100 | > 100 | > 100 | > 100 | > 100 | > 100 | > 100 | > 100 | > 100 | > 100 | > 100 | – | > 100 | > 100 | > 100 | > 100 | > 100 | > 100 | > 100
